In patent publication EP0371438B1, “3,5-Di-tertiary-butyl-4-hydroxyphenyl-1,3,4-thiadiazoles, and oxadiazoles and 3,5-di-tertiary-butyl-4-hydroxiphenyl- 1,2,4-thiadiazoles, -oxadiazoles as antiinflammatory agents” (WARNER-LAMBERT COMPANY, priority 1988, dated 1990):

How the values were obtained:
5-lipoxygenase = biological target: T1, 5-lipoxygenase (Rattus norvegicus, UniProt P12527); test: ARBL whole cell 5-lipoxygenase assay (LTB4 formation, RIA); format: cell-based; details: IC50 for LTB4 inhibition; RBL-1 cells, calcium ionophore A23187
T1 construct: host or cells: RBL-1 (rat basophilic leukemia)
T1 sequence (P12527 1-673): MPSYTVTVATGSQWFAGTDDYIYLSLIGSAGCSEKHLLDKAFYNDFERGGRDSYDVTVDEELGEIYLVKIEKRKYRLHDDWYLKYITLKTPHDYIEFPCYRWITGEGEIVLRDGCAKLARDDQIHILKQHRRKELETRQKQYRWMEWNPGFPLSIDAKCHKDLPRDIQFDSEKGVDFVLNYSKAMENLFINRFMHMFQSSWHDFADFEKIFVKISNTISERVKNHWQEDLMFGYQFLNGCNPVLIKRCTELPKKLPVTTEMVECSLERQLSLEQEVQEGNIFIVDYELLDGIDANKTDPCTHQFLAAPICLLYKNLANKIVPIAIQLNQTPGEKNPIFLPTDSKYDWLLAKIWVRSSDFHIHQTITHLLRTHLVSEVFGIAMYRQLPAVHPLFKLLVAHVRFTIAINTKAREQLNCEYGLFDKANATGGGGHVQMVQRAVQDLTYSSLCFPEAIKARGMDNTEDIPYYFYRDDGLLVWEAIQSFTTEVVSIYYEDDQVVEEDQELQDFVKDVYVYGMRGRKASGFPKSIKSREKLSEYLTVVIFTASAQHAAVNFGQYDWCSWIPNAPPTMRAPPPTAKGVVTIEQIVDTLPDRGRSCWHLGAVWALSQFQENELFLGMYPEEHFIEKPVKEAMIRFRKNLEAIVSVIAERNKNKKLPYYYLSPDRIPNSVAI
Method: (§1) ARBL/ARBC Whole Cell 5-Lipoxygenase and Cyclooxygenase Assays
(§2) The rat basophilic leukemia cell line (RBL-1) was obtained from the American Type Culture Collection (Rockville, MD).
(§3) Radioimmunoassay (RIA) kits of LTB₄ and [drawing 16] were obtained from Amersham (Arlington Heights, IL) and Seragen (Boston, MA), respectively.
(§4) RBL-1 cells are grown in suspension culture in Eagle's minimum essential medium supplemented with 12% fetal bovine serum at 37°C in an incubator supplied with air-5% carbon dioxide. Cells are harvested by centrifugation. They are washed with cold phosphate buffered saline pH 7.4 (PBS; NaCl, 7.1 g; Na₂HPO₄, 1.15 g; KH₂PO₄, 0.2 g; and KCl, 0.2 g/l). Cells are finally suspended in PBS containing 1.0 mM calcium at a density of 2x10⁶ cells/ml. Cells are incubated with and without test agent (in DMSO) (1% DMSO is without effect on arachidonic acid metabolism) for ten minutes at room temperature. Calcium ionophore A23187 (5 »M) is added and cells are incubated for seven minutes at 37°C. The reaction is stopped by chilling the tubes on ice for ten minutes. Cells are separated by centrifugation and the supernatant is stored at -20°. Aliquots (100 »l) are analyzed for LTB₄ and [drawing 17] using radioimmunoassay kits as provided by the supplier.
(§5) Table 1 contains biochemical data obtained from this whole cell assay as IC₅₀s which are calculated as the amount of test compound causing 50% inhibition of LTB₄ or [drawing 18] formation.

cyclooxygenase = test: ARBC whole cell cyclooxygenase assay (PGF2α formation, RIA); format: cell-based, rat; details: IC50 for PGF2α inhibition; RBL-1 cells, calcium ionophore A23187
Method: as §1, §2, §3, §4, §5

[1] = test system: Carrageenan-Induced Rat Foot Paw Edema; test: Carrageenan-induced rat foot paw edema-2 (CFE-2) assay; format: in vivo; details: 5 h, PO, dosed one hour before carrageenan, edema measured five hours after, compound tested as its sodium salt, read-out: CFE-2 ID₄₀
Method: Carrageenan-Induced Rat Foot Paw Edema-2 (CFE-2) Assay: Protocol
Carrageenan solution (1% w/v) is prepared by dissolving 100 mg carrageenan (Marine Colloidal Div., Springfield, NJ) in 10 ml of sterile saline (0.9%) solution (Travenol). The solution is vortexed for 30 to 45 minutes. Animals are dosed with compound one hour before carrageenan challenge. Foot paw edema is induced by injecting 0.10 ml of the 1% carrageenan subcutaneously into the plantar portion of the right hind paw of each rat under light anesthesia. Initial foot paw volume is measured immediately following carrageenan challenge using mercury plethysmography (Buxco Electronics). Edema is measured five hours after carrageenan. The difference between the five-hour and the initial paw volume is expressed as delta edema. The delta edema for each test group of animals is used to calculate the percent inhibition of edema achieved by the compound at the test dose compared with the vehicle control group. The ID₄₀ (the dose at which swelling is inhibited by 40%) is calculated by probit analysis for the dose at which 40 percent inhibition occurs.

[2] = test system: Mycobacterium - Induced Rat Footpad Edema; test: Mycobacterium-induced rat footpad edema assay (MFE); format: in vivo; details: PO, swelling 72 hours after injection, compound tested as its sodium salt, read-out: MFE ID₄₀
Method: Mycobacterium - Induced Rat Footpad Edema Assay (MFE): Protocol Mycobacterium butyricum (5 mg/ml) is suspended in paraffin oil by sonication for ten minutes in an ice bath. Footpad edema is induced on Day 0 by injecting 0.1 ml of the Mycobacterium mixture into the left hindpaw of lightly anesthetized rats. Swelling in the injected hindpaw is determined by mercury plethysmography 72 hours after injection. Groups of rats are treated with test compounds (suspended in 0.5% hydroxypropyl methylcellulose with 0.2% Tween-80) or vehicle one hour before Mycobacterium injection and on Days 1 and 2. Inhibition of swelling is determined by comparing the change in hindpaw volume in compound-and vehicle-treated rats. An ID₄₀ (the dose at which swelling is inhibited by 40%) is calculated by probit analysis.

gastric ulcers = test: Gastric ulcerogenicity (UD); format: in vivo, Male outbred Wistar rats; details: PO, dose which produces a 50% occurrence of ulcers in rats; result given @ 200; compound tested as its sodium salt
Method: Gastric Ulcerogenicity (UD): Protocol
Male outbred Wistar rats (100-250 gms) are fasted for 24 hours. After fasting, test compounds are administered orally (in 2 ml/kg of 0.5% hydroxypropyl methylcellulose) and the rats are denied access to food and water for six more hours. The rats are then sacrificed with CO₂ so that the stomachs can be removed, opened along the greater curvature, and evaluated for the presence of gastric ulcers. Results are expressed as the percent of rats with gastric ulcers at a given dose or as the UD₅₀ (the dose which causes ulcers in 50% of the rats).

Question: What does the source list for `CC(C)(C)c1cc(-c2nnc(S)s2)cc(C(C)(C)C)c1O` [Example 4, 5-[3,5-Bis(1,1-dimethylethyl)-4-hydroxyphenyl]-1,3,4-thiadiazole-2(3H)-thione]?
Answer: IC50 (5-lipoxygenase): 5.7 µM; IC50 (cyclooxygenase): 0.86 µM; ED40 [1]: 1.9 mg/kg; ED40 [2]: 3.2 mg/kg; UD₅₀ (gastric ulcers): N @ 200 (N is 0% of rats having ulcers at 200 mg.)

Question: Which IC50 (5-lipoxygenase) does the source give for `CC(C)(C)c1cc(-c2n[nH]c(=O)o2)cc(C(C)(C)C)c1O` [Example 7, 5-[3,5-Bis(1,1-dimethylethyl)-4-hydroxyphenyl]-1,3,4-oxadiazol-2(3H)-one] here?
Answer: Its IC50 is 1.4 µM.

Question: What about the IC50 (cyclooxygenase) of the same compound?
Answer: Its IC50 is 2.5 µM.

Question: With `CC(C)(C)c1cc(-c2n[nH]c(=S)o2)cc(C(C)(C)C)c1O` [Example 8, 5-[3,5-Bis(1,1-dimethylethyl)-4-hydroxyphenyl]-1,3,4-oxadiazole-2(3H)-thione] as the compound, how does the IC50 (5-lipoxygenase) read?
Answer: Its IC50 is 10 µM.

Question: And the IC50 (cyclooxygenase)?
Answer: Its IC50 is 8 µM.

Question: For `CC(C)(C)c1cc(-c2nnc(N)s2)cc(C(C)(C)C)c1O` [Example 10, 4-(5-Amino-1,3,4-thiadiazol-2-yl)-2,6-bis(1,1-dimethylethyl)phenol], which IC50 (5-lipoxygenase) is on record?
Answer: Its IC50 is 1.4 µM.

Question: What about the IC50 (cyclooxygenase) of the same compound?
Answer: The IC50 was 0.13 µM.

Question: Which IC50 (5-lipoxygenase) does the source give for `CC(C)(C)c1cc(-c2n[nH]c(=O)[nH]2)cc(C(C)(C)C)c1O` [Example 15, 5-[3,5-Bis(1,1-dimethylethyl)-4-hydroxyphenyl]-2,4-dihydro-3H-1,2,4-triazol-3-one] here?
Answer: Its IC50 is 4.5 µM.

Question: And the IC50 (cyclooxygenase)?
Answer: The IC50 was 5.5 µM.
